Data set [1] has as its target Recombinant human integrin αvβ6 (Homo sapiens (Human), UniProt P06756+P18564). The data set is described as follows: Solid Phase Receptor Assay (SPRA) for αvβ6 function. The data set is classed as binding. The note with it: LAP-coated plate. The protocol: 5. Solid Phase Receptor Assay (SPRA) for αvβ6 Function
Recombinant human LAP (R&D Systems, 246-LP) diluted to 0.25 μg/mL in TBS+ buffer (25 mM Tris pH 7.4, 137 mM NaCl, 2.7 mM KCl, 1 mM CaCl2, 1 mM MgCl2, 1 mM MnCl2) was added to wells (50 μL/well) of a 96-well half-well transparent microtiter plate (Greiner 675061) and incubated overnight at 4° C. Wells were washed 3 times with 150 μL TBS+, and 150 μL of blocking buffer (TBS+ with 1% bovine serum albumin, Sigma A7906) were added. The plate was incubated for 1 hr at 37° C., and then washed 3× with TBS+ buffer. Recombinant human integrin αvβ6 (R&D Systems, 3817-AV) was diluted to 0.1 μg/mL in TBS+/0.1% bovine serum albumin. Compounds were diluted 1:100 into the integrin solution and then 50 μL added to empty wells of the washed LAP-coated plate according to a standard template with each sample repeated in triplicate. After incubation for two hours at room temperature, the plate was washed 3× with 150 μL of TBS+ buffer. To each well, 50 μL of biotinylated anti-αv antibody (R&D Systems, BAF1219) at 0.5 μg/mL in TBS+/0.1% BSA were added and the plate was covered and incubated for 1 hr at room temperature. After washing the plate 3× with 150 μL of TBS+ buffer, 50 μL of streptavidin-conjugated horseradish peroxidase (R&D Systems, DY998) diluted in TBS+ blocking buffer were added to the wells and the plate incubated for 20 min at room temperature. The plate was washed 3× with TBS+ buffer followed by 50 μL of TMB substrate (Sigma T4444) added to each well and the plate incubated for 20 min at room temperature. Plates were read by colorimetric detection at 650 nm wavelength using a Tecan Safire II plate reader. Concentration-response curves were constructed by non-linear regression (best fit) analysis, and IC50 values were calculated for each compound.

Data set [2] can be described thus: Oral (PO) cassette pharmacokinetic study in male Sprague-Dawley rats. The data set is classed as in vivo. The note with it: plasma; male Sprague-Dawley rat, 2 mg/kg oral gavage cassette in 0.5% methylcellulose; read-out: AUC (0-inf) after a 2 mg/kg PO dose in rat. The protocol:
(§1) A minimally sufficient volume of dimethylsulfoxide (DMSO) was added to each test compound to achieve solubilization. For intravenous (IV) delivery, compounds were then formulated as solutions in glycerol formal: saline (either 20:80 or 40:60 v/v) (Sigma Chemicals, St. Louis). For oral (PO) administration, compounds were formulated with 0.5% methylcellulose. Five to six compound solutions were combined into a singled mixed solution for IV and PO cassette administration with final DMSO concentrations <0.6% or <1.2%, for the IV and PO cassettes, respectively. Analytes were detected in test samples using an LC/MS/MS (liquid chromatography/mass spectrometry) system consisting of an LC-20AD pump (Shimadzu, Kyoto, Japan), an HTC PAL autosampler (Leap technologies, Carrboro, N.C.), and a Sciex API-4000 mass spectrometer in ESI mode (AB Sciex, Foster City, Calif.). An Amour C18 reverse phase column (Analytical Sales and Services, Pompton Plains, N.J.) was used for chromatographic separation.
(§2) Pharmacokinetic (PK) studies conducted at Saint Louis University used male Sprague-Dawley rats with an initial body weight of 200 to 220 g. IV PK studies were performed with the following compounds: Examples 1-3 and 5-17 and comparison compounds C12-C18, C29, and C30. Animals were allowed free access to food and water. Rats were individually housed and connected to jugular vein catheters. Each cassette formulation was administered intravenously to two rats (1 mL/kg body weight). Each cassette formulation contained 5-6 compounds at 1 mg/kg in either 20:80 or 40/60 glycerol formal/saline (v/v). Blood was collected manually via the catheter into lithium-heparin tubes at 0.017, 0.083, 0.5, 1, 2, 4, 6 and 24 hours post-dose. Animals were euthanized with CO2 at the end of the experiment.
Oral PK studies were conducted with the following compounds: Examples 1-3 and 5-17 and comparison compounds C12, C14-16 and C29-30. The PO cassette formulations were administered via oral gavage to two rats (10 mL/kg body weight) containing 5-6 compounds per cassette. The oral dose was administered at 2 mg/kg/compound in 0.5% methylcellulose. Blood collection time points were 0.25, 0.5, 1, 2, 4, 6 and 24 hours post-dose into lithium-heparin tubes. Animals were euthanized with CO2 at the end of the experiment.
(§3) Internal standard was added to all samples at 200 ng/mL (final), as well as 150 μL of acetonitrile. Plasma samples (50 μL total volume) were diluted with control nave rat plasma as appropriate to bring the sample measurement into the linear dynamic range of the standard curve. The samples were capped and mixed on a multi-plate vortexer for 5 minutes and centrifuged for 5 minutes at 3200 rmp. The supernant was transferred to 96-well sample plate and capped for LC/MS/MS analysis. Compounds were optimized and monitored for their respective MRM transitions. The mobile phases consisted of 0.1% formic acid (aqueous) and 100% acetonitrile (organic) with an Amour C18 reverse phase column (2.1×30 mm, 5 micron) at a flow rate of 0.35 mL/min. The starting phase was 10% acetonitrile for the 0.9 minutes then increased to 90% acetonitrile over 0.4 minutes, and was maintained for an additional 0.2 minutes before returning to 10% acetonitrile over 0.4 minutes. The 10% acetonitrile was held for an additional 1.6 minutes. Peak areas were integrated using Analyst 1.5.1 (AB Sciex, Foster City, Calif.).

Data set [3] is described as follows: IV cassette pharmacokinetic study in male Sprague-Dawley rats (Saint Louis University). The note with it: plasma; male Sprague-Dawley rat, 1 mg/kg IV cassette, sampling to 24 h; read-out: plasma t½ after 1 mg/kg IV bolus dose in rat (converted). It is filed as in vivo. On the procedure:
as §1, §2, §3

Structures are written as SMILES. pIC50: −log10 of the molar value.

For orientation: pIC50 means the negative decadic logarithm of the IC50, by convention in mol/L.

Sequence of Recombinant human integrin αvβ6 (P06756 31-992): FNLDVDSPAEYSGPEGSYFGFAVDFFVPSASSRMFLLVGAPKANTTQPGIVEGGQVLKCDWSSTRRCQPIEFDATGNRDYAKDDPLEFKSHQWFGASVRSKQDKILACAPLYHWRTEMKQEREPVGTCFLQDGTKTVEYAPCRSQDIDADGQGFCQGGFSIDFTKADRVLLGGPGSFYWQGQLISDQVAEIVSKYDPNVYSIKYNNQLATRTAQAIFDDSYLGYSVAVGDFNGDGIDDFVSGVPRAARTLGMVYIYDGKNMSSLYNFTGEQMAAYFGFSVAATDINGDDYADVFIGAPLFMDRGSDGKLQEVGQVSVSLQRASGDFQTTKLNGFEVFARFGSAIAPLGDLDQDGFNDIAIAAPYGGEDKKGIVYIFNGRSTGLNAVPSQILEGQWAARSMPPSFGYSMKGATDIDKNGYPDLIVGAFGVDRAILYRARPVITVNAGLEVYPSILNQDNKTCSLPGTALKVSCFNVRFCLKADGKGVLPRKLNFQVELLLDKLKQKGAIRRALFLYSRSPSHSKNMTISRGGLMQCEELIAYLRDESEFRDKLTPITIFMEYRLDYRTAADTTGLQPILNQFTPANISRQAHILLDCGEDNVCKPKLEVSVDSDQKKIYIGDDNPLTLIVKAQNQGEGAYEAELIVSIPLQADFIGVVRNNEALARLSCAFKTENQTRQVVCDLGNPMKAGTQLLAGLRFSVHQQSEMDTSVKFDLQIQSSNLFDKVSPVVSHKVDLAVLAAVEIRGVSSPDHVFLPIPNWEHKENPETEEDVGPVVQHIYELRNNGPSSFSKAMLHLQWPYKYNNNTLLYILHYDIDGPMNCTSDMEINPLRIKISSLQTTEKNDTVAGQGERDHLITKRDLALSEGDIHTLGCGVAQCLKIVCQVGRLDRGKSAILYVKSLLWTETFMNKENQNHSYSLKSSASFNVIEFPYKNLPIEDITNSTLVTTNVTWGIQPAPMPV
Sequence of Recombinant human integrin αvβ6 (P18564 22-707): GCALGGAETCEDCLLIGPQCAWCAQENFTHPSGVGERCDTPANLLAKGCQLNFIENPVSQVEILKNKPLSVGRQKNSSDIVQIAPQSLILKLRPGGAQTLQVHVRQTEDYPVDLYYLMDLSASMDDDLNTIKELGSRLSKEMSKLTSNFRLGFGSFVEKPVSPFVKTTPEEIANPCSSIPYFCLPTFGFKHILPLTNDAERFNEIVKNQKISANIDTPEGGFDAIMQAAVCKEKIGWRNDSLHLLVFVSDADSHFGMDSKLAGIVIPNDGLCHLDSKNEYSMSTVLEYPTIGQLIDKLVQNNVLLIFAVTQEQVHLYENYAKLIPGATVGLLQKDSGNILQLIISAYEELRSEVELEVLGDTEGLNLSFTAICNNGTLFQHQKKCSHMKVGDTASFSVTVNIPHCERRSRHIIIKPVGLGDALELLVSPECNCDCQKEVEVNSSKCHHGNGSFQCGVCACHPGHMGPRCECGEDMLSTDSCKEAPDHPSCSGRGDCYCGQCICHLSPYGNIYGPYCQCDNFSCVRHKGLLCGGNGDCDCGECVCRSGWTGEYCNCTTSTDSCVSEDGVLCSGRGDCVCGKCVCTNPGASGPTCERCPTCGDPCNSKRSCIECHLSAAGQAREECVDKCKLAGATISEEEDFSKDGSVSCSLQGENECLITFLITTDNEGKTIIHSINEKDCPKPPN

Turning to `Cc1cc(Br)cc([C@H](CC(=O)O)NC(=O)CNC(=O)c2cc(O)cc(NC3=NCC(O)CN3)c2)c1` (stereo partly drawn) [Example 11, (3S)-3-[3-bromo-5-methyl-phenyl)-3-(2-(3-hydroxy-5-((5-hydroxy-1,4,5,6-tetrahydropyrimidin-2-yl)amino)benzamido)acetamido)propanoic acid], in data set [1], the pIC50 is 9.30. The AUC(0-inf) in data set [2] is 9140 ng·h/mL. In data set [3], the half-life was 24 h.

Take `Cc1cc(Cl)cc([C@H](CC(=O)O)NC(=O)CNC(=O)c2cc(O)cc(NC3=NCC(O)CN3)c2)c1` (stereo partly drawn) [Example 12, (3S)-3-[3-chloro-5-methyl-phenyl)-3-(2-(3-hydroxy-5-((5-hydroxy-1,4,5,6-tetrahydropyrimidin-2-yl)amino)benzamido)acetamido)propanoic acid]: the pIC50 in data set [1] was 9.22. In addition, the AUC(0-inf) in data set [2] came out at 9110 ng·h/mL. The half-life in data set [3] was 13.7 h.

Regarding `O=C(O)C[C@H](NC(=O)CNC(=O)c1cc(O)cc(NC2=NCC(O)CN2)c1)c1cc(F)cc(Br)c1` (stereo partly drawn) [Example 13, (3S)-3-[3-bromo-5-fluoro-phenyl)-3-(2-(3-hydroxy-5-((5-hydroxy-1,4,5,6-tetrahydropyrimidin-2-yl)amino)benzamido)acetamido)propanoic acid], in data set [1], the negative logarithm of the IC50 (pIC50) was 9.40. In addition, the AUC(0-inf) in data set [2] turned out to be 13900 ng·h/mL. The half-life in data set [3] is 11 h.

For `O=C(O)C[C@H](NC(=O)CNC(=O)c1cncc(NC2=NCC(O)CN2)c1)c1cc(Br)cc(Br)c1` (stereo partly drawn) [Example 14, (3S)-3-(3,5-dibromophenyl)-3-[[2-[[5-[(5-hydroxy-1,4,5,6-tetrahydropyrimidin-2-yl)amino]pyridine-3-carbonyl]amino]acetyl]amino]propanoic acid], the pIC50 in data set [1] is 9.70. Also, the AUC(0-inf) in data set [2] was 6500 ng·h/mL. For the same molecule, the half-life in data set [3] is 34.2 h.

Consider `O=C(O)C[C@H](NC(=O)CNC(=O)c1cc(O)cc(NC2=NCC(O)CN2)c1)c1cc(Cl)cc(Cl)c1` (stereo partly drawn) [Example 15, (3S)-3-[3,5-dichloro-phenyl)-3-(2-(3-hydroxy-5-((5-hydroxy-1,4,5,6-tetrahydropyrimidin-2-yl)amino)benzamido)acetamido)propanoic acid], for which, in data set [1], the pIC50 is 9.22. For the same molecule, the AUC(0-inf) in data set [2] came out at 15600 ng·h/mL. Also, the half-life in data set [3] was 23.8 h.

Consider `O=C(O)C[C@H](NC(=O)CNC(=O)c1cc(O)cc(NC2=NCC(O)CN2)c1)c1cc(Cl)cc(OC(F)(F)F)c1` (stereo partly drawn) [Example 16, (3S)-3-[3-chloro-5-(trifluoromethoxy)phenyl)-3-(2-(3-hydroxy-5-((5-hydroxy-1,4,5,6-tetrahydropyrimidin-2-yl)amino)benzamido)acetamido)propanoic acid], for which the pIC50 in data set [1] was 9.30. For the same molecule, the AUC(0-inf) in data set [2] is 6810 ng·h/mL. In addition, in data set [3], the half-life is 3.2 h.

Turning to `O=C(O)C[C@H](NC(=O)CNC(=O)c1cc(O)cc(NC2=NCC(O)CN2)c1)c1cc(Br)cc(OC(F)(F)F)c1` (stereo partly drawn) [Example 17, (3S)-3-(3-bromo-5-(trifluoromethoxy)phenyl)-3-(2-(3-hydroxy-5-((5-hydroxy-1,4,5,6-tetrahydropyrimidin-2-yl)amino)benzamido)acetamido)propanoic acid], in data set [1], the pIC50 is 9.15. Besides, in data set [2], the AUC(0-inf) turned out to be 13100 ng·h/mL. The half-life in data set [3] is 4.1 h.
